From patent EP0107907A2, “Improvements in or relating to immunomodulating agents” (ELI LILLY AND COMPANY, priority 1982, dated 1984)

Tested on: murine macrophages
Experiment: In vitro activation of murine macrophages (macrophage-mediated tumor cytotoxicity against P815 cells)
Assay type: cell-based
Conditions: for Percent Macrophage Cytotoxicity: 48 hours; for immunomodulatory activity: in the in vitro assay
Protocol: In one procedure, the ability of the compounds to activate murine macrophages in vitro was determined. Peritoneal macrophages were exposed to a compound of formula 1, 2, or 3 simultaneously with the addition of target cells. Tumor cytotoxicity of these treated macrophages was determined 48 hours later by trypan blue enumeration. The percentage of growth inhibition of P815 cells due to composition-mediated macrophage activation was calculated by comparison to that of P815 cells grown in the.presence of macrophages exposed to buffer.

Compound | Percent Macrophage Cytotoxicity (Fosfomycin 10 µg/ml, Experiment 1) [%] | Percent Macrophage Cytotoxicity (Fosfomycin 10 µg/ml, Experiment 2) [%] | Percent Macrophage Cytotoxicity (Fosfomycin 100 µg/ml, Experiment 1) [%] | Percent Macrophage Cytotoxicity (Fosfomycin 100 µg/ml, Experiment 2) [%] | immunomodulatory activity
C[C@@H]1O[C@@H]1P(=O)(O)O [Fosfomycin, reference compound] | 49 | 11 | 47 | 30 | 
C[C@H](N)C(=O)N[C@@H](C)P(=O)(O)O [alaphosphin, L-alanyl-L-1-aminb-- ethylphosphonic acid, reference compound] |  |  |  |  | did not exhibit immunomodulatory activity
O=CN(O)CCCP(=O)(O)O [fosmidomycin, reference compound] |  |  |  |  | did not exhibit immunomodulatory activity
